From patent US11014917B2, “5-fluoro-c-(aryl or heterocyclyl)-glycoside derivatives useful as dual SGLT1 / SGLT2 modulators” (Janssen Pharmaceutica NV, priority 2017, dated 2021)

Experiments:
human SGLT1 = biological target: T1, human SGLT1 (Homo sapiens, UniProt P13866); assay: SGLT1 assay: Na-dependent 14C-AMG uptake in CHO-K1 cells stably expressing human SGLT1; format: cell-based; conditions: for IC50: average if tested more than once; for SGLT1 %-inhibition: @ 0.3 μM
T1 construct: expressed in transfected cells
T1 sequence (P13866 1-664): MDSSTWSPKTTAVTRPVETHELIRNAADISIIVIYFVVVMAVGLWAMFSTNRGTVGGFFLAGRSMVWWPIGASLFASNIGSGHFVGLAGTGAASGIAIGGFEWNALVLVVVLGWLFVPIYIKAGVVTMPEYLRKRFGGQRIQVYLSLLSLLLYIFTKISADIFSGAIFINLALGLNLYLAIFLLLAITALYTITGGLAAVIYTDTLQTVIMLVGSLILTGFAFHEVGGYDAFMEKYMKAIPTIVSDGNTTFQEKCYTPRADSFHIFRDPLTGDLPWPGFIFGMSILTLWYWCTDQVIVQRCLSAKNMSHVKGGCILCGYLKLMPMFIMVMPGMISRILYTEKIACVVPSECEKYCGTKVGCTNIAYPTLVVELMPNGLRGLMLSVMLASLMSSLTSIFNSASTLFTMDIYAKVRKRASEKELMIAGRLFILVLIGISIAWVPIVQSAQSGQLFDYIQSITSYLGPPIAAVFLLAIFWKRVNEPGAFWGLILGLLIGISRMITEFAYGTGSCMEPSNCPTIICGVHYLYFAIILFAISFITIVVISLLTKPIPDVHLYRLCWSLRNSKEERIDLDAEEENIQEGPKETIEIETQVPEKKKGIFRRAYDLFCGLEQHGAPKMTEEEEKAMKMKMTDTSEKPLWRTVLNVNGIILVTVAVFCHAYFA
Method: (§1) The ability of the compounds of formula (I) of the present invention to treat an SGLT-mediated condition was determined using the following procedures:
(§2) SGLT1 and SGLT2 were cloned in form of cDNA from human small intestine (Genbank M24847), and from human kidney (Genbank M95549), respectively. Subsequently, each full cDNA was subcloned into pcDNA with each construct's integrity verified through follow-on sequencing. To generate CHO-K1 cells that stably express human SGLT1 or human SGLT2, CHO-K1 cells were transfected using DMRIE-C reagent (Life Technologies, Gaithersburg, Md.). Transfected cells were then selected in the presence of 500 μg/ml of the Geneticin (G418 Cellgro Catalog No. 30234-Cl)
(§3) Individual clones were then characterized using the following cell-based assay for sodium-dependent glucose transport:
(§4) Inhibition of SGLT1 and SGLT2 activity was assessed in CHO K1 cells stably expressing either human SGLT1 or SGLT2, using the SGLT specific glucose analog methyl-glucopyranoside (Sigma Catalog No. M-9376). Cells were plated (45,000 cells/well) in white wall 96-well plates (COSTAR, Cat #3903) for 24 hours in growth medium, then a final concentration of 10 mM Na-Butyrate (ALDRICH Cat #30341-0) was added. The cells were incubated for 24 hours. On the day of the assay, cells were rinsed and treated with test compounds (at concentrations of 0.001 μM to 10 μM) in assay buffer (50 mM HEPES, 20 mM Tris base, 5 mM KCl, 1 mM MgCl2, 1 mM CaCl2 and 137 mM NaCl, pH 7.4) for 10 minutes. Cells were then incubated with ^14C-a-methyl-d-glucopyranoside (AMG, Amersham Catalog No. CFB 76), using 0.07 μCi per well in 500 μM AMG final concentration. The cells were incubated for 2 hours at 37° C. with 5% CO2 and washed two times with ice-cold Phosphate Buffer Solution (Cellgro Catalog No. 21030-CV). The cells were then solubilized by adding 60 μl of MICROSCINT™20 and the Na-dependent ^14C-AMG uptake was quantified by measuring radioactivity. Plates were counted in a TopCount (Packard, Meriden, Conn.)
(§5) Representative compounds of the present invention were tested according to the procedures as described in Biological Example 1 and 2 above, with results as listed in Table 5, below. Results are reported as the %-inhibition or IC50 value. Variability for the functional assay was typically within 20%.

human SGLT2 = biological target: T2, human SGLT2 (Homo sapiens, UniProt P31639); assay: SGLT2 assay: Na-dependent 14C-AMG uptake in CHO-K1 cells stably expressing human SGLT2; format: cell-based; conditions: for IC50: average if tested more than once; for SGLT2 %-inhibition: @ 0.3 μM
T2 construct: expressed in transfected cells
T2 sequence (P31639 1-672): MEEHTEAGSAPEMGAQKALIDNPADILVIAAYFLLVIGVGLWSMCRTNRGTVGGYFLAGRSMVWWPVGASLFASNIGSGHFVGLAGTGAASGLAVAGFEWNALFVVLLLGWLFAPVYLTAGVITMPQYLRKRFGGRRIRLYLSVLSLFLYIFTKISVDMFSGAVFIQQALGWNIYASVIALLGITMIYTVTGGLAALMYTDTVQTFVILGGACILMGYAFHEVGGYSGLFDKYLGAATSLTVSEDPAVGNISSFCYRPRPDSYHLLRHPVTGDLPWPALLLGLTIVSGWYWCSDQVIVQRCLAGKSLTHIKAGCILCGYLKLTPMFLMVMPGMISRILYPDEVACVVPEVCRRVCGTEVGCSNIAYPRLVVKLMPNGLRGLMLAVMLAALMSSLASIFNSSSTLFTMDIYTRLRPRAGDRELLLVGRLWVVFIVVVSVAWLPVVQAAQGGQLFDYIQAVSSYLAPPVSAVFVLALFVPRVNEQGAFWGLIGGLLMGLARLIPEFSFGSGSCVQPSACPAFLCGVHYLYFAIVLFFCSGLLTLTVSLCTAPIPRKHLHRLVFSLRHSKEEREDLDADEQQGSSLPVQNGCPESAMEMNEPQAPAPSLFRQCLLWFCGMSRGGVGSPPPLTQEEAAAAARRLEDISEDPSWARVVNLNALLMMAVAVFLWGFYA
Method: as §1, §2, §3, §4, §5

Compound | IC50 (human SGLT1) [nM] | IC50 (human SGLT2) [nM] | SGLT1 %-inhibition (human SGLT1) [% @ 0.3 μM] | SGLT2 %-inhibition (human SGLT2) [% @ 0.3 μM]
COc1c([C@@H]2O[C@H](CO)[C@@H](F)[C@H](O)[C@H]2O)cc(Cc2ccc3c(c2)SCCO3)c2c1CCO2 [Compound 107, (2S,3R,4R,5S,6R)-2-(7-((2,3-dihydrobenzo[b][1,4]oxathiin-6-yl)methyl)-4-methoxy-2,3-dihydrobenzofuran-5-yl)-5-fluoro-6-(hydroxymethyl)-tetrahydro-2H-pyran-3,4-diol] | 163 | 8 | – | –
COc1cc(OC)c([C@@H]2O[C@H](CO)[C@@H](F)[C@H](O)[C@H]2O)cc1Cc1cc2c(s1)CCN(C(C)=O)C2 [Compound 82] | – | – | 42.2 | 58.9
OC[C@H]1O[C@@H](c2cc(Cc3cc4ccccc4s3)c(Cl)cc2O)[C@H](O)[C@@H](O)[C@@H]1F [Compound 7] | 18 | 6 | – | –
COc1cc(O)c([C@@H]2O[C@H](CF)[C@@H](F)[C@H](O)[C@H]2O)cc1Cc1cc2ccccc2s1 [Compound 11, (2S,3R,4R,5S,6R)-2-[5-(1-benzothiophen-2-ylmethyl)-2-hydroxy-4-methoxyphenyl]-5-fluoro-6-(fluoromethyl)oxane-3,4-diol] | 91 | 59 | – | –
COc1cc(C)c(Cc2cc3c(s2)CCN(C(=O)N2CCOCC2)C3)cc1[C@@H]1O[C@H](CO)[C@@H](F)[C@H](O)[C@H]1O [Compound 69] | – | – | 20.4 | 60.3
OC[C@H]1O[C@@H](c2cc3c(c(Cc4ccc5c(c4)OCCO5)c2)OCC3)[C@H](O)[C@@H](O)[C@@H]1F [Compound 54] | 69 | 11 | – | –
COc1cc(C)c(Cc2cc3c(s2)CCN(C(=O)c2nccs2)C3)cc1[C@@H]1O[C@H](CO)[C@@H](F)[C@H](O)[C@H]1O [Compound 112, (2-(5-((2S,3R,4R,5S,6R)-5-fluoro-3,4-dihydroxy-6-(hydroxymethyl)-tetrahydro-2H-pyran-2-yl)-4-methoxy-2-methylbenzyl)-6,7-dihydrothieno[3,2-c]pyridin-5(4H)-yl)(thiazol-2-yl)methanone] | 376 | 23 | – | –
COc1cc(Cl)c(Cc2cc3c(s2)CCN(C#N)C3)cc1[C@@H]1O[C@H](CO)[C@@H](F)[C@H](O)[C@H]1O [Compound 99] | – | – | 28.9 | 83.5
Cc1cc(O)c([C@@H]2O[C@H](CF)[C@@H](F)[C@H](O)[C@H]2O)cc1Cc1cc2ccccc2s1 [Compound 20, (2S,3R,4R,5S,6R)-2-(5-(benzo[b]thiophen-2-ylmethyl)-2-hydroxy-4-methylphenyl)-5-fluoro-6-(fluoromethyl)-tetrahydro-2H-pyran-3,4-diol] | 114 | 402 | – | –
OC[C@H]1O[C@@H](c2cc(Cc3cc4ccccc4s3)c(C3CC3)cc2O)[C@H](O)[C@@H](O)[C@@H]1F [Compound 29] | 13 | 62 | – | –
[2H]C1([2H])Oc2ccc(Cc3cc([C@@H]4O[C@H](CO)[C@@H](F)[C@H](O)[C@H]4O)ccc3CC)cc2OC1([2H])[2H] [Compound 175] | 87 | 12 | – | –
OC[C@H]1O[C@@H](c2cc(Cc3ccc4c(c3)OCCO4)c3c(c2)OCC3)[C@H](O)[C@@H](O)[C@@H]1F [Compound 153] | 50 | 58 | – | –
COc1c(Cc2ccc3c(c2)CC3)cc([C@@H]2O[C@H](CO)[C@@H](F)[C@H](O)[C@H]2O)c2c1CCO2 [Compound 152] | 6 | 6 | – | –
O=C1COc2cc(Cc3cc([C@@H]4O[C@H](CO)[C@@H](F)[C@H](O)[C@H]4O)cc4c3OCC4)ccc2N1 [Compound 97] | – | – | 31.2 | 67.9
COc1c(Cc2ccc3c(c2)OCCO3)cc([C@@H]2O[C@H](CO)[C@@H](F)[C@H](O)[C@H]2O)c2c1CCO2 [Compound 101, (2S,3R,4R,5S,6R)-2-[5-(2,3-dihydro-1,4-benzodioxin-6-ylmethyl)-4-methoxy-2,3-dihydrobenzofuran-7-yl]-5-fluoro-6-(hydroxymethyl)tetrahydropyran-3,4-diol] | 96 | 7 | – | –
COc1cc(C)c(Cc2cc3c(s2)CCN(C(=O)C2CCCC2)C3)cc1[C@@H]1O[C@H](CO)[C@@H](F)[C@H](O)[C@H]1O [Compound 91] | – | – | 31.7 | 65.5
COc1c(Cc2cc3ccccc3s2)cc([C@@H]2O[C@H](CO)[C@@H](F)[C@H](O)[C@H]2O)c(O)c1C [Compound 14] | – | – | 69.3 | 36.0
Cc1cnc(N2CCc3sc(Cc4cc([C@@H]5O[C@H](CO)[C@@H](F)[C@H](O)[C@H]5O)c(O)cc4C)cc3C2)s1 [Compound 117] | – | – | 44.3 | 69.9
CCc1ccc([C@@H]2O[C@H](CO)[C@@H](F)[C@H](O)[C@H]2O)cc1Cc1ccc2c(c1)OC(F)(F)O2 [Compound 158] | – | – | 2.6 | 18.0
COc1cc(C)c(Cc2cc3c(s2)CCN(C(=O)N2CCCC2)C3)cc1[C@@H]1O[C@H](CO)[C@@H](F)[C@H](O)[C@H]1O [Compound 81] | 223 | 11 | – | –
COC(=O)N1CCc2sc(Cc3cc([C@@H]4O[C@H](CO)[C@@H](F)[C@H](O)[C@H]4O)c(OC)cc3Cl)cc2C1 [Compound 76] | – | – | 28.6 | 72.2
CCc1ccc(Cc2cc([C@@H]3O[C@H](CO)[C@@H](F)[C@H](O)[C@H]3O)cc3c2OCC3)cc1 [Compound 134] | 254 | 12 | – | –
Cc1c(Cc2ccc3c(c2)SCCO3)cc([C@@H]2O[C@H](CO)[C@@H](F)[C@H](O)[C@H]2O)c2c1CCO2 [Compound 132] | 135 | 23 | – | –
OC[C@H]1O[C@@H](c2cc3c(c(Cc4ccc5c(c4)SCCO5)c2)OCC3)[C@H](O)[C@@H](O)[C@@H]1F [Compound 124] | 698 | 147 | – | –
COc1cc(CO)c([C@@H]2O[C@H](CO)[C@@H](F)[C@H](O)[C@H]2O)cc1Cc1cc2ccccc2s1 [Compound 34] | – | – | 38.6 | 27.6
COc1cc(Cl)c(Cc2cc3c(s2)CCN(C(C)=O)C3)cc1[C@@H]1O[C@H](CO)[C@@H](F)[C@H](O)[C@H]1O [Compound 77] | – | – | 30.3 | 69.9
